This passage reports cellular viability results from US10758744B2, “Combination of an oxidant and a photoactivator for the wounds” (KLOX TECHNOLOGIES INC., priority 2008, dated 2020).

For this data set, the system named is Hep G2 human hepatocellular carcinoma cells. Conditions: 24 hours, 0.001 to 100 μM, compared to untreated cells. Here is the method:
Hep G2 cells were treated for 24 hours with increasing concentrations (0.001 to 100 μM) of Eosin Y, or left untreated (CTL).
Hep G2 cells were treated for 24 hours with increasing concentrations (0.001 to 100 μM) of Erythrosine B, or left untreated (CTL). Staurosporine (STS) was used as a positive control inducing cellular mortality.
The toxicity of the photoactivators Eosin Y and Erythrosine B was evaluated by measuring the cytotoxicity of these compounds on human cells. Hep G2 human hepatocellular carcinoma cells with an epithelial morphology were treated for 24 hours with increasing concentrations (0.001 to 100 μM) of Eosin Y or Erythrosine B, and the cellular survival was evaluated.

Consider `CN[C@@H]1C[C@H]2O[C@@](C)([C@@H]1OC)n1c3ccccc3c3c4c(c5c6ccccc6n2c5c31)C(=O)NC4` [Staurosporine], for which the cellular viability entry is reported as “caused a dose-dependent effect”.
